Test results as given in ChEMBL document CHEMBL5579883, “Discovery of Novel Neo-Clerodane Derivatives as Potent Dual-Functional Antiosteoporosis Agents through Targeting Peroxisome Proliferator-Activated Receptor-γ” (J Med Chem, 2024).
Activity calls are given as the source filed them. The rule behind the calls is not given here.

Experiments:
Mus musculus [1] = experiment: Anti-osteoporosis activity in OVX-induced osteoporosis C57BL/6J mouse model assessed as prevention of increase in bone surface area/bone volume in femur at 10 mg/kg, IG administered once a day for 4 weeks by micro-CT scanning analysis; format: functional, organism-based
Mus musculus [2] = experiment: Anti-osteoporosis activity in OVX-induced osteoporosis C57BL/6J mouse model assessed as prevention of trabecular thickness decrease in femur at 10 mg/kg, IG administered once a day for 4 weeks by micro-CT scanning analysis; format: functional, organism-based
[3] = biological target: T1, Peroxisome proliferator-activated receptor gamma (Homo sapiens, UniProt P37231); experiment: Antagonist activity at PPAR gamma LBD (203 to 476 residues) (unknown origin) expressed in HEK293T cells co-transfected with pCMV-GAL4-PPARgamma-LBD-SV40-Renilla-luciferase assessed as reduction of rosiglitazone induced PPAR-gamma activation incubated for 24 hrs by dural-luciferase reporter assay; format: cell-based
T1 sequence (P37231 whole entry): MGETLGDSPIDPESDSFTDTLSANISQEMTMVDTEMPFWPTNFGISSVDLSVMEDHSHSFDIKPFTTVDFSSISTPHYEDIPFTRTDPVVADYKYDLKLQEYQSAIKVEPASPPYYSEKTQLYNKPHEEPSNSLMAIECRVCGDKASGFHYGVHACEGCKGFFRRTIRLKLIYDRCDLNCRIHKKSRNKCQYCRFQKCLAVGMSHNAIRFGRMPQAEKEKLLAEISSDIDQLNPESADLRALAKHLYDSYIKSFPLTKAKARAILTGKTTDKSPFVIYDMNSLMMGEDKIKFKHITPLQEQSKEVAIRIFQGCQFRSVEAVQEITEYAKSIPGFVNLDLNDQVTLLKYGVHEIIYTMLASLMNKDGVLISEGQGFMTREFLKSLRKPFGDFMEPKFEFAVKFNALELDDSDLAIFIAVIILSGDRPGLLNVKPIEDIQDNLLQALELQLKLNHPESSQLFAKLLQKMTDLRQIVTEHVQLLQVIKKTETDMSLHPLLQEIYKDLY

Mus musculus [4] = experiment: Anti-osteoporosis activity in OVX-induced osteoporosis C57BL/6J mouse model assessed as reduction in osteocalcin level at 10 mg/kg, IG administered once a day for 4 weeks by ELISA method; format: functional, organism-based
Mus musculus [5] = experiment: Anti-osteoporosis activity in OVX-induced osteoporosis C57BL/6J mouse model assessed as prevention of trabecular number decrease in femur at 10 mg/kg, IG administered once a day for 4 weeks by micro-CT scanning analysis; format: functional, organism-based
Mus musculus [6] = experiment: Anti-osteoporosis activity in OVX-induced osteoporosis C57BL/6J mouse model assessed as prevention of bone volume/[…] volume decrease in femur at 10 mg/kg, IG administered once a day for 4 weeks by micro-CT scanning analysis; format: functional, organism-based
Mus musculus [7] = experiment: Anti-osteoporosis activity in OVX-induced osteoporosis C57BL/6J mouse model assessed as reduction in ACP5 level at 10 mg/kg, IG administered once a day for 4 weeks by ELISA method; format: functional, organism-based
Mus musculus [8] = experiment: Anti-osteoporosis activity in OVX-induced osteoporosis C57BL/6J mouse model assessed as reduction in PINP level at 10 mg/kg, IG administered once a day for 4 weeks by ELISA method; format: functional, organism-based
BMDM [9] = experiment: cells; settings: Mus musculus, 144 h, read-out: INH
Description: Inhibition of osteoclastogenesis in C57BL/6J mouse Bone marrow macrophage cells assessed as inhibition of RANKL-stimulated osteoclast formation at 10 uM measured after 6 days by tartrate-resistant acid phosphatase (TRAP) staining assay relative to control

Mus musculus [10] = experiment: Anti-osteoporosis activity in C57BL/6J mouse model assessed as downregulation of OVX-induced TNF-alpha accumulation at 10 mg/kg, IG administered once a day for 4 weeks by ELISA method; format: functional, organism-based
Mus musculus [11] = experiment: Anti-osteoporosis activity in OVX-induced osteoporosis C57BL/6J mouse model assessed as reduction in RANKL level at 10 mg/kg, IG administered once a day for 4 weeks by ELISA method; format: functional, organism-based
BMDM [12] = experiment: Cytotoxicity against mouse Bone marrow macrophage at 10 uM measured after 72 hrs by MTT assay; format: toxicity, cell-based
Mus musculus [13] = experiment: Anti-osteoporosis activity in OVX-induced osteoporosis C57BL/6J mouse model assessed as reduction in CTX-1 level at 10 mg/kg, IG administered once a day for 4 weeks by ELISA method; format: functional, organism-based
Mus musculus [14] = experiment: Anti-osteoporosis activity in C57BL/6J mouse model assessed as downregulation of OVX-induced IL-6 accumulation at 10 mg/kg, IG administered once a day for 4 weeks by ELISA method; format: functional, organism-based
Mus musculus [15] = experiment: Anti-osteoporosis activity in OVX-induced osteoporosis C57BL/6J mouse model assessed as recovery of serum estradiol level at 10 mg/kg, IG administered once a day for 4 weeks by ELISA method; format: functional, organism-based
BMDM [16] = experiment: Inhibition of osteoclastogenesis in C57BL/6J mouse Bone marrow macrophage cells assessed as inhibition of RANKL-stimulated osteoclast formation measured after 6 days by tartrate-resistant acid phosphatase (TRAP) staining assay; settings: 144 h
[17] = biological target: T1, Peroxisome proliferator-activated receptor gamma; experiment: Binding affinity to PPAR gamma LBD (203 to 476 residues) (unknown origin) extracted from Escherichia coli BL21 (DE3) cells assessed as dissociation constant in presence of rosiglitazone by Isothermal titration calorimetry method
[18] = biological target: T1, Peroxisome proliferator-activated receptor gamma; experiment: Binding affinity to PPAR gamma LBD (203 to 476 residues) (unknown origin) extracted from Escherichia coli BL21 (DE3) cells assessed as dissociation constant by Isothermal titration calorimetry method
[19] = biological target: Nuclear receptor corepressor 1 (Homo sapiens) (UniProt O75376); experiment: Effect on NCoR recruitment (unknown origin) at 10 uM incubated for 24 hrs by TR-FRET assay
Sequence of Nuclear receptor corepressor 1 (Homo sapiens) (O75376 whole entry): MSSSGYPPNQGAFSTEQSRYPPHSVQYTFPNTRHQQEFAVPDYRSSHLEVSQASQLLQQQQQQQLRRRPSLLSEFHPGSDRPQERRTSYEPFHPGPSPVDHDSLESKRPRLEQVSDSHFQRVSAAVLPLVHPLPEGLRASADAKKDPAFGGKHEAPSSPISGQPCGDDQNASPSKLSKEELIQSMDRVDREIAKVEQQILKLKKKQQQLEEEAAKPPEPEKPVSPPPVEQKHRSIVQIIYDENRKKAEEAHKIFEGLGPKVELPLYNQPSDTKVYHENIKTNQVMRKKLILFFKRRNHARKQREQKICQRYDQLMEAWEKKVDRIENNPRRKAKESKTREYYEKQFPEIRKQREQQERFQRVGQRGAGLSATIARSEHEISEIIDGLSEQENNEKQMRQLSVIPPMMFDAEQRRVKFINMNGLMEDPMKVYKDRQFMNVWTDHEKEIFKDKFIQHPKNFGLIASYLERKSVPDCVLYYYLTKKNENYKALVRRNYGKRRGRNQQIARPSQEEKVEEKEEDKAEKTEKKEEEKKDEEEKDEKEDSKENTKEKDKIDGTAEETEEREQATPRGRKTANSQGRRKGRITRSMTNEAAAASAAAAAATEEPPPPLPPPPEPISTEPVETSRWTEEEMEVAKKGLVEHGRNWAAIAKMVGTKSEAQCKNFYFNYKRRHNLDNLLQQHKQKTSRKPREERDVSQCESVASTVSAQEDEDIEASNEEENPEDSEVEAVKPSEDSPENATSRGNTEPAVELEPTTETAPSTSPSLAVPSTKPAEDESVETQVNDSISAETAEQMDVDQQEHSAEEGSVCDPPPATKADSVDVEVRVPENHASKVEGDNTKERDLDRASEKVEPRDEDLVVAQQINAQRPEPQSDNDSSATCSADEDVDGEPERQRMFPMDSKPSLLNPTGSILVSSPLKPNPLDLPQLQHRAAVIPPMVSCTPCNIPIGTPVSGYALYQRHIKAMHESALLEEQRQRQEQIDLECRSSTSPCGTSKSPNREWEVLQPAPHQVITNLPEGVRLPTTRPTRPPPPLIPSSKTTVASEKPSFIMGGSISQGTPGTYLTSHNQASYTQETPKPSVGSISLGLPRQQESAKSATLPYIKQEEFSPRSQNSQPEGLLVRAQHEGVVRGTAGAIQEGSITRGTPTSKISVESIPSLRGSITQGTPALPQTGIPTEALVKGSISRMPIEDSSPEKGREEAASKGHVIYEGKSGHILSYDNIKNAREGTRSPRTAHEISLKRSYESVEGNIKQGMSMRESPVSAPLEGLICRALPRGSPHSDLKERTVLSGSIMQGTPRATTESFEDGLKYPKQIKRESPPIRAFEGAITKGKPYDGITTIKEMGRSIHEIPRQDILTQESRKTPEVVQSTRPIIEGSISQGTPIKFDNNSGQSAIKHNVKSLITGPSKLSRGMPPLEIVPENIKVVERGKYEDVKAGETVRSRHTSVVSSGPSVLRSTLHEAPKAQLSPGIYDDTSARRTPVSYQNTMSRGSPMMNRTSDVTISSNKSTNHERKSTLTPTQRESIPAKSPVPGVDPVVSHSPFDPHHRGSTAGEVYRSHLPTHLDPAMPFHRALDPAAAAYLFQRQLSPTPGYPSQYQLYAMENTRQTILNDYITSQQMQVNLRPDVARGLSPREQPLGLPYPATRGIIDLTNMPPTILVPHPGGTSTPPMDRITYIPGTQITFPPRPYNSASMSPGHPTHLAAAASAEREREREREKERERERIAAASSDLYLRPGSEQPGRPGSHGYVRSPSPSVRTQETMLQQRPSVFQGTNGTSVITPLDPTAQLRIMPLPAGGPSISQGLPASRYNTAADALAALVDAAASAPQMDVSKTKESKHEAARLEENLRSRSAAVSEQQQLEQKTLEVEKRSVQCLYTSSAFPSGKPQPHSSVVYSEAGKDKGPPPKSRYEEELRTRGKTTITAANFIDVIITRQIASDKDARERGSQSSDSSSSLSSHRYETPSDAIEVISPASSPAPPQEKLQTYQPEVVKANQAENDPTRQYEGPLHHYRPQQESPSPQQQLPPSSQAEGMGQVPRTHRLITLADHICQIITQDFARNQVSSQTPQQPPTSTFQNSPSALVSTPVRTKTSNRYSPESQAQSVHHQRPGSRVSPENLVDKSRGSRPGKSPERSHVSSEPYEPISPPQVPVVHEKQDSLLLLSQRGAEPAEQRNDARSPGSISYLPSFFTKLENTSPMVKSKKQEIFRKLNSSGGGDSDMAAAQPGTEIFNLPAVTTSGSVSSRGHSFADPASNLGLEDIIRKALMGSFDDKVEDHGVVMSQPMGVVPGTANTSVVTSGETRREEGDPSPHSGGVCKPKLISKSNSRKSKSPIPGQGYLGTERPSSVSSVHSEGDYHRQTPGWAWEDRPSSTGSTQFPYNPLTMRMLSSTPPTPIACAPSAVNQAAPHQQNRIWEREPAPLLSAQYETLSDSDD

BMDM [20] = experiment: Inhibition of osteoclastogenesis in C57BL/6J mouse Bone marrow macrophage cells assessed as inhibition of RANKL-stimulated osteoclast formation at 10 uM measured after 7 days in presence of rosiglitazone by tartrate-resistant acid phosphatase (TRAP) staining assay; format: functional, cell-based; settings: time 7.0 day
[21] = biological target: T2, Peroxisome proliferator-activated receptor gamma coactivator 1-alpha (Homo sapiens) (UniProt Q9UBK2); experiment: Effect on PGC-1 alpha recruitment (unknown origin) incubated for 24 hrs at 10 uM by TR-FRET assay
T2 sequence (whole entry): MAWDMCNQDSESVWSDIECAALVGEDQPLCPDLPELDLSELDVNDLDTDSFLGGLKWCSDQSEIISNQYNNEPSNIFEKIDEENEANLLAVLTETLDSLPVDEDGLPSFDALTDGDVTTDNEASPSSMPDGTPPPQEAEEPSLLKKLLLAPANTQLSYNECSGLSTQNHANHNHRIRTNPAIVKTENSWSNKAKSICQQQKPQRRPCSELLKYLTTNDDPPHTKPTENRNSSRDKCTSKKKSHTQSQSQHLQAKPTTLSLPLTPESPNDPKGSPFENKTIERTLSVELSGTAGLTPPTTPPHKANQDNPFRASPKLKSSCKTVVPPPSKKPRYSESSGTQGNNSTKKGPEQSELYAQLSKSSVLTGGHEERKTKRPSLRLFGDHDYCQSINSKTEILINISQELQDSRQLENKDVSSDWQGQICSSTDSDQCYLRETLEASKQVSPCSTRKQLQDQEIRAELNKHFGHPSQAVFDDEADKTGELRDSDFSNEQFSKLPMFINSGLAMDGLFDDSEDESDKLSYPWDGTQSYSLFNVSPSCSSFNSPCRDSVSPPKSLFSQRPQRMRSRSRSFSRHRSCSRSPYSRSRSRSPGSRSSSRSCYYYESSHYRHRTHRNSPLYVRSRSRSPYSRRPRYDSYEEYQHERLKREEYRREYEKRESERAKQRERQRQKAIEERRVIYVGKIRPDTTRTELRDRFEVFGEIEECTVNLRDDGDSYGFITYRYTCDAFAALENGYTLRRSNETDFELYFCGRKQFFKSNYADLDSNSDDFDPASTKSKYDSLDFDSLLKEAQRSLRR

BMDM [22] = experiment: Inhibition of osteoclastogenesis in C57BL/6J mouse Bone marrow macrophage cells assessed as inhibition of RANKL-stimulated osteoclast formation at 10 uM measured after 7 days by tartrate-resistant acid phosphatase (TRAP) staining assay; format: functional, cell-based; settings: time 7.0 day

## CCC(C)C(=O)O[C@@H](C[C@@]1(C)[C@H](C)C[C@H](OC(C)=O)[C@]2(COC(C)=O)[C@@H]1CCC[C@]21CO1)C1=CC(=O)OC1 (stereo partly specified)
Mus musculus [1]
  Activity: Active
Mus musculus [2]
  Activity: Active
[3]
  IC50: 12.2 µM
Mus musculus [4]
  Activity: Active
Mus musculus [5]
  Activity: Active
Mus musculus [6]
  Activity: Active
Mus musculus [7]
  Activity: Active
Mus musculus [8]
  Activity: Active
BMDM [9]
  inhibition at 10 µM: > 50%
Mus musculus [10]
  Activity: Active
Mus musculus [11]
  Activity: Active
BMDM [12]
  Activity: Non-Toxic
Mus musculus [13]
  Activity: Active
Mus musculus [14]
  Activity: Active
Mus musculus [15]
  Activity: Active
BMDM [16]
  IC50: 1.42 µM

## CC(=O)OC[C@@]12[C@@H](OC(C)=O)C[C@@H](C)[C@](C)(CCC3=CC(=O)OC3)[C@H]1CCC[C@]21CO1 [AJUGARIN I]
[3]
  IC50: 12 µM
BMDM [9]
  inhibition at 10 µM: > 50%
BMDM [12]
  Activity: Non-Toxic
BMDM [16]
  IC50: 3.71 µM

## CC(=O)OC[C@@]12[C@@H](OC(C)=O)C[C@@H](C)[C@](C)(C[C@H](OC(C)=O)C3=CC(=O)OC3)[C@H]1CCC[C@]21CO1
[3]
  IC50: 13.2 µM
BMDM [9]
  inhibition at 10 µM: > 50%
BMDM [12]
  Activity: Non-Toxic
BMDM [16]
  IC50: 2.73 µM

## C/C=C(\C)C(=O)O[C@@H](C[C@@]1(C)[C@H](C)C[C@H](OC(C)=O)[C@]2(COC(C)=O)[C@@H]1CCC[C@]21CO1)C1=CC(=O)OC1 [AJUGANIPPONIN B]
[17]
  Kd: 127 µM
[3]
  IC50: 6.99 µM
BMDM [9]
  inhibition at 10 µM: > 50%
BMDM [12]
  Activity: Non-Toxic
[18]
  Kd: 16 µM
[19]
  Activity: inactive
BMDM [20]
  inhibition: Active
[21]
  Activity: inactive
BMDM [16]
  IC50: 0.97 µM
BMDM [22]
  inhibition: Active

## C/C=C(\C)C(=O)OC[C@@]12[C@H](CCC[C@]13CO3)[C@@](C)(C[C@H](O)C1=CC(=O)OC1)[C@H](C)C[C@@H]2O
[3]
  IC50: 11.5 µM
BMDM [9]
  inhibition at 10 µM: > 50%
BMDM [12]
  Activity: Non-Toxic
BMDM [16]
  IC50: 3.23 µM

## C/C=C(\C)C(=O)O[C@@H](C[C@@]1(C)[C@H](C)C[C@H](OC(C)=O)[C@]2(COC(C)=O)[C@@H]1[C@H](O)CC[C@]21CO1)C1=CC(=O)OC1
[3]
  IC50: 19.5 µM
BMDM [9]
  inhibition at 10 µM: > 50%
BMDM [12]
  Activity: Non-Toxic
BMDM [16]
  IC50: 4.68 µM

## C/C=C(\C)C(=O)OC[C@@]12[C@@H](OC(C)=O)C[C@@H](C)[C@](C)(CCC3=CC(=O)OC3)[C@H]1CCC[C@]21CO1 [AJUGACUMBIN A]
[17]
  Kd: 79.5 µM
[3]
  IC50: 8.35 µM
BMDM [9]
  inhibition at 10 µM: > 50%
BMDM [12]
  Activity: Non-Toxic
[18]
  Kd: 17.7 µM
[19]
  Activity: inactive
BMDM [20]
  inhibition: Active
[21]
  Activity: inactive
BMDM [16]
  IC50: 1.92 µM
BMDM [22]
  inhibition: Active

## C/C=C(\C)C(=O)OC[C@@]12[C@H](CCC[C@]1(O)CCl)[C@@](C)(C[C@H](O)C1=CC(=O)OC1)[C@H](C)C[C@@H]2O
[3]
  IC50: 11.5 µM
BMDM [9]
  inhibition at 10 µM: > 50%
BMDM [12]
  Activity: Non-Toxic
BMDM [16]
  IC50: 1.72 µM

## COC(=O)[C@@H]1CCC[C@@H]2[C@@](C)(C[C@H](OC(=O)C(C)C)C3=CC(=O)OC3)[C@H](C)C[C@H](O)[C@]21C
[3]
  IC50: 12.5 µM
BMDM [9]
  inhibition at 10 µM: > 50%
BMDM [12]
  Activity: Non-Toxic
BMDM [16]
  IC50: 1.79 µM

## C/C=C(\C)C(=O)OC[C@@]12[C@@H](OC(C)=O)C[C@@H](C)[C@](C)(CCC3=CC(=O)OC3)[C@H]1CCC[C@]2(O)CCl [AJUGACUMBIN A CHLOROHYDRIN]
[3]
  IC50: 10.2 µM
BMDM [9]
  inhibition at 10 µM: > 50%
BMDM [12]
  Activity: Non-Toxic
BMDM [16]
  IC50: 1.11 µM

## CC(=O)OC[C@@]12[C@@H](OC(C)=O)C[C@@H](C)[C@](C)(C[C@H](OC(C)=O)C3=CC(=O)OC3)[C@H]1[C@H](O)CC[C@]21CO1
[3]
  IC50: 13 µM
BMDM [9]
  inhibition at 10 µM: > 50%
BMDM [12]
  Activity: Non-Toxic
BMDM [16]
  IC50: 5.1 µM

## CCC(C)C(=O)O[C@@H](C[C@@]1(C)[C@H](C)C[C@H](O)[C@]2(C)[C@@H]1CCC[C@H]2C(=O)OC)C1=CC(=O)OC1 (stereo partly specified)
[3]
  IC50: 13 µM
BMDM [9]
  inhibition at 10 µM: > 50%
BMDM [12]
  Activity: Non-Toxic
BMDM [16]
  IC50: 1.23 µM

## C/C=C(\C)C(=O)OC[C@@]12[C@H](CCC[C@]1(O)CCl)[C@@](C)(CCC1=CC(=O)OC1)[C@H](C)C[C@@H]2O
[3]
  IC50: 10.4 µM
BMDM [9]
  inhibition at 10 µM: > 50%
BMDM [12]
  Activity: Non-Toxic
BMDM [16]
  IC50: 1.77 µM
